Data: patent publication US20230233567A1, “BELVARAFENIB FOR USE IN CANCER TREATMENT” (Hanmi Pharm. Co., Ltd., priority 2020, published 2023)
“Also recorded” adds a separate entry of the source. Where two headings read alike, the source gives them in different places.

Tests used:
[1] = system: NRAS^G13D mutant K1735 syngeneic mouse melanoma model; experiment: In vivo antitumor activity, K1735 syngeneic model
Protocol: In vivo antitumor activity of belvarafenib was investigated in NRAS^G13D mutant K1735 syngeneic mouse melanoma model. Seven animals per group were treated with vehicle (control) and with belvarafenib at a dose of 7.5 or 15 mg/kg once daily via oral gavage.

[2] = system: locally advanced and/or metastatic solid tumors carrying mutations in the BRAF, KRAS, and/or NRAS genes; experiment: Phase I dose-escalation tumor response (RECIST v1.1); assay type: in vivo, human; parameters: key: “uPR” refers to unfolded protein response; “cPR” refers to confirmed partial response; conditions: BRAF^V600E, NRAS^Q61L melanoma, prior Vemurafenib
Protocol: Phase I dose-escalation (NCT02405065) and dose-expansion studies (NCT02405065) were conducted in patients with locally advanced and/or metastatic solid tumors carrying mutations in the BRAF, KRAS, and/or NRAS genes.
Eligible patients had measurable or evaluable disease per the Response Evaluation Criteria in Solid Tumors version 1.1 (RECIST v1.1). See Eisenhauer E A, Therasse P, Bogaerts J, et al., “New response evaluation criteria in solid tumours: revised RECIST guideline (version 1.1)”, Eur J Cancer 45:228-47, 2009. All patients had progressed on one or more prior lines of therapy or had no available standard therapy at the time of study entry. Additional eligibility criteria included Eastern Cooperative Oncology Group (ECOG) performance status ≤2 and life expectancy ≥12 weeks. Patients with cardiovascular abnormalities as mean QTcF>440 msec were excluded from the dose-expansion phase.
Tumor response assessments were performed radiographically by the investigator using RECIST version 1.1 at baseline, and at the end of every two treatment cycles until discontinuation. Safety evaluation (Safety Set) included all patients who received one or more doses of belvarafenib and efficacy evaluation (Full Analysis Set) included subjects who received at least one dose of belvarafenib and had at least one post-dose tumor response assessment.

CRAF = CRAF (Homo sapiens, UniProt P04049, Y340D/Y341D); experiment: RAF inhibition Ki; assay type: biochemical
Chain of CRAF (P04049 306-648 Y340D/Y341D): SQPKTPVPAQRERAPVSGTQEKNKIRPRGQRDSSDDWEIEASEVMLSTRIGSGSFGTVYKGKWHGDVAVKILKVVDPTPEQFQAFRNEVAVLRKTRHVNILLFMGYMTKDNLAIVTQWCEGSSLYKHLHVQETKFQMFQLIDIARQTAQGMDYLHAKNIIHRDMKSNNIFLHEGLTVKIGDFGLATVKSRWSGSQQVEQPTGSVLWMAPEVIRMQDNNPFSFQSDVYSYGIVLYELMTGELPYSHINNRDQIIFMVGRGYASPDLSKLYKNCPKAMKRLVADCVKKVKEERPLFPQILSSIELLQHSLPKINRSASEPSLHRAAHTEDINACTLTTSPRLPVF
Protocol: (§1) Belvarafenib was evaluated to measure the inhibition capability of RAF monomers and dimers. In Table 12: “A375” refers to the A375 a human melanoma cell line bearing a BRAF^V600E mutation; “IPC298” refers to the IPC298 cutaneous melanoma cell line bearing an NRAS^Q61L mutation; “A549” refers to the A549 lung adenocarcinoma cell line baring a KRAS mutation; “CSFR1” refers to the CSFR1 gene; “DDR1” refers to discoidin domain receptors DDR1; and “DDR2” refers to discoidin domain receptors DDR2. In Table 13: “% P/T−MEK” refers to the ratio of P-MEK and total MEK; “Conc 1” refers to an inhibitor first (lowest) concentration; “Conc 2” refers to an inhibitor second (intermediate) concentration; and “Conc 3” refers to an inhibitor third (highest) concentration. In Table 13, LXH254 refers to a drug having CAS No.: 1800398-38-2 and the following structure: […]

BRAF^V600E = BRAF^V600E (Homo sapiens, UniProt P15056, V600E); experiment: RAF inhibition Ki; assay type: biochemical
Chain of BRAF^V600E (P15056 whole entry V600E): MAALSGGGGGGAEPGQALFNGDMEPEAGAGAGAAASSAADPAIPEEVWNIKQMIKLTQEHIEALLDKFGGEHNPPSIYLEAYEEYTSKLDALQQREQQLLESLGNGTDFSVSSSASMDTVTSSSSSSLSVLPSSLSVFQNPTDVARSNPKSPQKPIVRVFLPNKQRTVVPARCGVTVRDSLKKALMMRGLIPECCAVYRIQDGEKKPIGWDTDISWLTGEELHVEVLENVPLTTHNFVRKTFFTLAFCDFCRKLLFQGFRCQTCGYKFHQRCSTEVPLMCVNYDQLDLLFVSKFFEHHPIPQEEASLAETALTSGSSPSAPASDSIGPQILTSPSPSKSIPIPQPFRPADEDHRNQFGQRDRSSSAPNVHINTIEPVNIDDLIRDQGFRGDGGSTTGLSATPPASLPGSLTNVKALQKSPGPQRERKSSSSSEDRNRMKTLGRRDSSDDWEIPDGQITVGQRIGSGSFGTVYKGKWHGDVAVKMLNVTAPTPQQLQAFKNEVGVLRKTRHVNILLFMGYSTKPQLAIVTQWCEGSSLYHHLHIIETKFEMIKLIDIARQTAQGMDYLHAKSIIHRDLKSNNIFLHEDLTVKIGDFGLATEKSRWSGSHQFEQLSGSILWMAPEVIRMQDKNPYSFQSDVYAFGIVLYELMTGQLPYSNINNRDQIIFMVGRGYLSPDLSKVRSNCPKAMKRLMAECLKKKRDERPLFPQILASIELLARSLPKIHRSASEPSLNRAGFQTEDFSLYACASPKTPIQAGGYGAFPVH
Protocol: as §1

BRAF = BRAF (Homo sapiens, UniProt P15056); experiment: RAF inhibition Ki; assay type: biochemical
Chain of BRAF (P15056 whole entry): as the sequence (P15056 whole entry V600E) above, with E600V counted along it
Protocol: as §1

[3] = system: IPC298 cutaneous melanoma cell line bearing an NRAS^Q61L mutation; experiment: IPC298 IC50; assay type: cell-based; conditions: Homo sapiens, IPC-298
Protocol: as §1

8505C (BRAF^V600E) = experiment: In vitro cell growth inhibition, thyroid cancer; assay type: cell-based; conditions: Homo sapiens
[4] = 450 mg BID (74 patients), All Grades
[5] = 450 mg BID (74 patients), Grade ≥3

Compound: Cc1ccc2c(Nc3cccc(Cl)c3F)nccc2c1NC(=O)c1csc2c(N)ncnc12 [Belvarafenib]
- Day for maximum inhibition ([1]; 15 mg/kg): 22
- Maximum weight loss ([1]; 15 mg/kg): 2.2%
- Maximum inhibition rate ([1]; 15 mg/kg once daily oral gavage, 3 weeks): 54.7%
- Belvarafenib BOR [2]: uPR
- Ki (CRAF): 2 nM
- Ki (BRAF^V600E): 2 nM
- Ki (BRAF): 41 nM
- ADR leading to drug Interrupted [4]: 17 (23.0) n (%)
- ADR leading to drug reduced [4]: 12 (16.2) n (%)
- ADR leading to study drug discontinuation [4]: 3 (4.1) n (%)
- Abdominal pain [4]: 10 (13.5) n (%)
- Any ADRs [4]: 62 (83.8) n (%)
- Any TEAEs [4]: 72 (97.3) n (%)
- Constipation [4]: 15 (20.3) n (%)
- Decreased appetite [4]: 15 (20.3) n (%)
- Dermatitis acneiform [4]: 34 (46.0) n (%)
- Dyspepsia [4]: 10 (13.5) n (%)
- Fatigue [4]: 12 (16.2) n (%)
- Nausea [4]: 12 (16.2) n (%)
- Pruritus [4]: 18 (24.3) n (%)
- Pyrexia [4]: 15 (20.3) n (%)
- Rash [4]: 16 (21.6) n (%)
- TEAE leading to drug Interrupted [4]: 21 (28.4) n (%)
- TEAE leading to drug reduced [4]: 15 (20.3) n (%)
- TEAE leading to study drug discontinuation [4]: 3 (4.1) n (%)
- Vomiting [4]: 9 (12.2) n (%)
- ADR leading to drug Interrupted [5]: 7 (9.5) n (%)
- ADR leading to drug reduced [5]: 3 (4.1) n (%)
- ADR leading to study drug discontinuation [5]: 3 (4.1) n (%)
- Abdominal pain [5]: 0 n (%)
- Any ADRs [5]: 16 (21.6) n (%)
- Any TEAEs [5]: 30 (40.5) n (%)
- Constipation [5]: 0 n (%)
- Decreased appetite [5]: 1 (1.4) n (%)
- Dermatitis acneiform [5]: 4 (5.4) n (%)
- Dyspepsia [5]: 0 n (%)
- Fatigue [5]: 1 (1.4) n (%)
- Nausea [5]: 1 (1.4) n (%)
- Pruritus [5]: 0 n (%)
- Pyrexia [5]: 0 n (%)
- Rash [5]: 2 (2.7) n (%)
- TEAE leading to drug Interrupted [5]: 10 (13.5) n (%)
- TEAE leading to drug reduced [5]: 5 (6.8) n (%)
- TEAE leading to study drug discontinuation [5]: 3 (4.1) n (%)
- Vomiting [5]: 2 (2.7) n (%)
- MTD (maximum tolerated dose) (BID, oral, dose-escalation phase): 650 mg
- tolerability (RD of 450 mg BID): generally well-tolerated
- ADR leading to drug Interrupted (Total (n=135), All Grades): 25 (18.5) n (%)
- ADR leading to drug reduced (Total (n=135), All Grades): 21 (15.6) n (%)
- ADR leading to study drug discontinuation (Total (n=135), All Grades): 9 (6.7) n (%)
- Abdominal pain (Total (n=135), All Grades): 14 (10.4) n (%)
- Any ADRs (Total (n=135), All Grades): 113 (83.7) n (%)
- Any TEAEs (Total (n=135), All Grades): 127 (94.1) n (%)
- Constipation (Total (n=135), All Grades): 18 (13.3) n (%)
- Decreased appetite (Total (n=135), All Grades): 25 (18.5) n (%)
- Dermatitis acneiform (Total (n=135), All Grades): 50 (37.0) n (%)
- Dyspepsia (Total (n=135), All Grades): 15 (11.1) n (%)
- Fatigue (Total (n=135), All Grades): 20 (14.8) n (%)
- Nausea (Total (n=135), All Grades): 21 (15.6) n (%)
- Pruritus (Total (n=135), All Grades): 30 (22.2) n (%)
- Pyrexia (Total (n=135), All Grades): 24 (17.8) n (%)
- Rash (Total (n=135), All Grades): 32 (23.7) n (%)
- TEAE leading to drug Interrupted (Total (n=135), All Grades): 29 (21.5) n (%)
- TEAE leading to drug reduced (Total (n=135), All Grades): 25 (18.5) n (%)
- TEAE leading to study drug discontinuation (Total (n=135), All Grades): 12 (8.9) n (%)
- Vomiting (Total (n=135), All Grades): 18 (13.3) n (%)
- ADR leading to drug Interrupted (Total (n=135), Grade ≥3): 9 (6.7) n (%)
- ADR leading to drug reduced (Total (n=135), Grade ≥3): 5 (3.7) n (%)
- ADR leading to study drug discontinuation (Total (n=135), Grade ≥3): 8 (5.9) n (%)
- Abdominal pain (Total (n=135), Grade ≥3): 0 n (%)
- Any ADRs (Total (n=135), Grade ≥3): 26 (19.3) n (%)
- Any TEAEs (Total (n=135), Grade ≥3): 45 (33.3) n (%)
- Constipation (Total (n=135), Grade ≥3): 0 n (%)
- Decreased appetite (Total (n=135), Grade ≥3): 1 (0.7) n (%)
- Dermatitis acneiform (Total (n=135), Grade ≥3): 4 (3.0) n (%)
- Dyspepsia (Total (n=135), Grade ≥3): 2 (1.5) n (%)
- Fatigue (Total (n=135), Grade ≥3): 1 (0.7) n (%)
- Nausea (Total (n=135), Grade ≥3): 1 (0.7) n (%)
- Pruritus (Total (n=135), Grade ≥3): 0 n (%)
- Pyrexia (Total (n=135), Grade ≥3): 0 n (%)
- Rash (Total (n=135), Grade ≥3): 4 (3.0) n (%)
- TEAE leading to drug Interrupted (Total (n=135), Grade ≥3): 13 (9.6) n (%)
- TEAE leading to drug reduced (Total (n=135), Grade ≥3): 7 (5.2) n (%)
- TEAE leading to study drug discontinuation (Total (n=135), Grade ≥3): 8 (5.9) n (%)
- Vomiting (Total (n=135), Grade ≥3): 2 (1.5) n (%)
- cases of squamous cell carcinoma (SCC) (dose-escalation and dose-expansion (n=135)): No cases of squamous cell carcinoma (SCC) were reported; also recorded: no cases of SCC were observed
- patients who experienced DLTs (dose-escalation, cycle 1, 50 evaluable patients): Four of the 50 patients experienced DLTs
- Serious TEAEs related to belvarafenib (n=135, 12 patients): 8.9%
- Serious TEAEs (n=135, 30 patients): 22.2%
- RD (recommended dose) for single-agent belvarafenib (twice per day (BID)): 450 mg
- IC50 [3]: 130 nM
- GI50 (8505C (BRAF^V600E)): 345 nM
